Assay results taken from article PMC10191434 (2023).

System: modified procaine-binding aptamer (new sequence) (DNA, aptamer) AGACAAGGAAAATCCTTCAACGAAGTGGGTCG
Test: square-wave voltammetry, EAB sensor titration
Settings: undiluted bovine CSF, 37 °C, immobilised aptamer; for binding: highest concentration not given

| binding | Kd (Langmuir-Hill fit, ± is 95% confidence) [µM] | Structure (SMILES) |
| --- | --- | --- |
| no |  | CCN(CC)CCO |
|  | 960 ± 30 | CCN(CC)CCOC(=O)c1ccc(N)cc1 |
| no |  | Nc1ccc(C(=O)O)cc1 |
